In ChEMBL document CHEMBL2413017, “Identification of novel HDAC inhibitors through cell based screening and their evaluation as potential anticancer agents” (Bioorg Med Chem Lett, 2013):
pIC50: −log10 of the molar value. Values belong to the compound of their own block, whether it stands above or below them. Calls of active or inactive are those of the source. No cut-off for these calls is given here.

What was measured:
SK-OV-3 = experiment: Cytotoxicity against human SKOV3 cells; type: functional, cell-based
Histone deacetylase 8 = target: T1, Histone deacetylase 8 (Homo sapiens, UniProt Q9BY41); experiment: Inhibition of HDAC8 (unknown origin)
T1 sequence (Q9BY41 whole entry): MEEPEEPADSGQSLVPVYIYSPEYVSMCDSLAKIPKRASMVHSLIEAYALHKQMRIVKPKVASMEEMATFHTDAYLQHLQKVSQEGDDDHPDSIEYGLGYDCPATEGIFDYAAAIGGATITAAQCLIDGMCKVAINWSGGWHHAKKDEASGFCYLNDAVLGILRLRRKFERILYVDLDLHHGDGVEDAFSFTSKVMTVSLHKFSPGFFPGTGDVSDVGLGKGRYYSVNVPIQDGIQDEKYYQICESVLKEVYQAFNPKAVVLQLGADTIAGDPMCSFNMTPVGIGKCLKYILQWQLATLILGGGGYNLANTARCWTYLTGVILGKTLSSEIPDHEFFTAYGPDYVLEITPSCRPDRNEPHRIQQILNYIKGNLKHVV

[1] = Cytotoxicity against human H23 cells; type: functional, cell-based; conditions: NCI-H23
NCI-H295R = experiment: Cytotoxicity against human NCI-H295R cells; type: functional, cell-based
[2] = Cytotoxicity against human MIHA cells; type: functional, cell-based
MIA PaCa-2 [3] = experiment: Antitumor activity against human MIAPaCa2 cells xenografted in Ncr mouse assessed as tumor growth inhibition at 100 mg/kg, po administered daily for 22 days measured on day 22 relative to vehicle-treated control; type: functional; conditions: MIA PaCa-2, 528 h, read-out: TGI
[4] = Cytotoxicity against human MiaPaCa cells; type: functional, cell-based; conditions: MIA PaCa-2
[5] = target: T2, Protein deacetylase HDAC6 (Homo sapiens, UniProt Q9UBN7); experiment: Inhibition of HDAC6 (unknown origin)
T2 sequence (Q9UBN7 whole entry): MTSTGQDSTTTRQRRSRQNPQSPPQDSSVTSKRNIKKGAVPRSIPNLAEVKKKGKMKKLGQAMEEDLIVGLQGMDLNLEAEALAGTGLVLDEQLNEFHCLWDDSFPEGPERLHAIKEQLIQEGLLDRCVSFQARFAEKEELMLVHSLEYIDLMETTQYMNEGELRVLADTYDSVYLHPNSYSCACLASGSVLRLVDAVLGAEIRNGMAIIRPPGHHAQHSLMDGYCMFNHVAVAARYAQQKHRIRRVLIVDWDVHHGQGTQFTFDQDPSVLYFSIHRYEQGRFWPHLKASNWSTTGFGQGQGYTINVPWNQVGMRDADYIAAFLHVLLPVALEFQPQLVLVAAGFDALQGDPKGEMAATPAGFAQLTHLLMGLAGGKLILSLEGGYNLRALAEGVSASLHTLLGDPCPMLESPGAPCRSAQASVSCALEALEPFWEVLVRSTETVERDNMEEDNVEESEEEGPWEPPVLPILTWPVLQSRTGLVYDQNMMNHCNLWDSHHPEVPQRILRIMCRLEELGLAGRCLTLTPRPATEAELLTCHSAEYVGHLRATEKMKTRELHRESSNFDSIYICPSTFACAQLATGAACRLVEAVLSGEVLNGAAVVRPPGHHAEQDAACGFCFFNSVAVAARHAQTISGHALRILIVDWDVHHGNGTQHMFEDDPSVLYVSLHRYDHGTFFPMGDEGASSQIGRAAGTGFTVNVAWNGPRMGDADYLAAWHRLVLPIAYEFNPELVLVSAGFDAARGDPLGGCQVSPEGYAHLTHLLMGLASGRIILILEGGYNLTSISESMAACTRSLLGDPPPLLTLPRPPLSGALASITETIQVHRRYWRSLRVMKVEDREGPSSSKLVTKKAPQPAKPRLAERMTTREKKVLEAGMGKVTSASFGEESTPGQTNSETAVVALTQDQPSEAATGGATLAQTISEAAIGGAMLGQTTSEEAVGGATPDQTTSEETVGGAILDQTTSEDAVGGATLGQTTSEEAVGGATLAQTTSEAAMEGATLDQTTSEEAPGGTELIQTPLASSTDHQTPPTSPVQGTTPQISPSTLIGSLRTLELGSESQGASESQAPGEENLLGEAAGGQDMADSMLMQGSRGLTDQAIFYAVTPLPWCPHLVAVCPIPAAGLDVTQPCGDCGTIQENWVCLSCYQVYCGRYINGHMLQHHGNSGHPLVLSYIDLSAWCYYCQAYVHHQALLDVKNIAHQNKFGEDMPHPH

Mus musculus = experiment: Toxicity in human MiaPaCa2 cells xenografted Ncr mouse at 50 to 100 mg/kg, po administered daily for 22 days; type: organism-based; set-up: dose 50-100 mg/kg, route oral; conditions: in vivo, 528 h
Histone deacetylase 4 = Histone deacetylase 4 (Homo sapiens, UniProt P56524); experiment: Inhibition of HDAC4 (unknown origin)
Histone deacetylase 2 = Histone deacetylase 2 (Homo sapiens, UniProt Q92769); experiment: Inhibition of HDAC2 (unknown origin)
[6] = Cytotoxicity against human VCaP cells; type: functional, cell-based
Histone deacetylase 5 = Histone deacetylase 5 (Homo sapiens, UniProt Q9UQL6); experiment: Inhibition of HDAC5 (unknown origin)
[7] = Cytotoxicity against human A2780C/P cells; type: functional, cell-based
Histone deacetylase 3 = Histone deacetylase 3 (Homo sapiens, UniProt O15379); experiment: Inhibition of HDAC3 (unknown origin)
MDA-MB-231 = experiment: Cytotoxicity against human MDA-MB-231 cells; type: functional, cell-based
NCI-H69 [8] = experiment: Cytotoxicity against human H69 cells; type: functional, cell-based
[9] = Cytotoxicity against human MV522 cells; type: functional, cell-based
Histone deacetylase 1 = Histone deacetylase 1 (Homo sapiens, UniProt Q13547); experiment: Inhibition of HDAC1 (unknown origin)
NCI-H69 [10] = experiment: Cytotoxicity against […] expressing human H69 cells; type: functional, cell-based
Histone deacetylase 11 = target: T3, Histone deacetylase 11 (Homo sapiens, UniProt Q96DB2); experiment: Inhibition of HDAC11 (unknown origin)
T3 sequence (Q96DB2 whole entry): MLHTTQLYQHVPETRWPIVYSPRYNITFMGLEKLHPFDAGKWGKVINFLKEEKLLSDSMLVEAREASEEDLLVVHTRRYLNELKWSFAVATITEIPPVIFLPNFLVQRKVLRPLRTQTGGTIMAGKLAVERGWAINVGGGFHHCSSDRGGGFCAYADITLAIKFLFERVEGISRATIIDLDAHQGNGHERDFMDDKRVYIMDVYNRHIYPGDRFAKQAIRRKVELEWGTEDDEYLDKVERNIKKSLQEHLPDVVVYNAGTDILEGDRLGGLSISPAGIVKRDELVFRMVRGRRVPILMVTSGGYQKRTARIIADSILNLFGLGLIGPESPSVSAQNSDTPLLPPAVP

[11] = target: T4, Polyamine deacetylase HDAC10 (Homo sapiens, UniProt Q969S8); experiment: Inhibition of HDAC10 (unknown origin)
T4 sequence (Q969S8 whole entry): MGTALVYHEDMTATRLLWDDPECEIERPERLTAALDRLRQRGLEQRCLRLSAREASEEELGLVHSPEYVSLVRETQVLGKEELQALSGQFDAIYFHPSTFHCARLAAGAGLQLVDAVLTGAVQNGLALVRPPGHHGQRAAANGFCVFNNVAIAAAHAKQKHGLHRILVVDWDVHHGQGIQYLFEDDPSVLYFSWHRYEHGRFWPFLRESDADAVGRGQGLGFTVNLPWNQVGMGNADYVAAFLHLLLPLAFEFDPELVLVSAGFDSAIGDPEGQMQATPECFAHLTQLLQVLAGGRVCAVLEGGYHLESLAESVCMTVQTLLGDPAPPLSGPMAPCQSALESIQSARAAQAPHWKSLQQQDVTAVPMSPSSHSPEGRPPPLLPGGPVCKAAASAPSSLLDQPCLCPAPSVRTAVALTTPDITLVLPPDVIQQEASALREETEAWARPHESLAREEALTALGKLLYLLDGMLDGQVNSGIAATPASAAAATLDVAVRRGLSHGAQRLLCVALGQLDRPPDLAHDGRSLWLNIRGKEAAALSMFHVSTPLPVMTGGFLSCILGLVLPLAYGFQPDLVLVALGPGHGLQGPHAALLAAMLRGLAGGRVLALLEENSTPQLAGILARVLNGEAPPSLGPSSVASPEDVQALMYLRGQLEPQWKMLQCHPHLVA

[12] = Cytotoxicity against human Hep3B cells; type: functional, cell-based, Hep 3B2
Histone deacetylase 9 = Histone deacetylase 9 (Homo sapiens, UniProt Q9UKV0); experiment: Inhibition of HDAC9 (unknown origin)
[13] = Cytotoxicity against human SNU880 cells; type: functional, cell-based
A2780 = experiment: Cytotoxicity against human A2780 cells; type: functional, cell-based
MIA PaCa-2 [14] = experiment: Antitumor activity against human MIAPaCa2 cells xenografted in Ncr mouse assessed as tumor growth inhibition at 80 mg/kg, ip administered daily for 22 days measured on day 25 relative to vehicle-treated control; type: functional, organism-based; set-up: dose 80 mg/kg

Chain of Histone deacetylase 4 (P56524 whole entry): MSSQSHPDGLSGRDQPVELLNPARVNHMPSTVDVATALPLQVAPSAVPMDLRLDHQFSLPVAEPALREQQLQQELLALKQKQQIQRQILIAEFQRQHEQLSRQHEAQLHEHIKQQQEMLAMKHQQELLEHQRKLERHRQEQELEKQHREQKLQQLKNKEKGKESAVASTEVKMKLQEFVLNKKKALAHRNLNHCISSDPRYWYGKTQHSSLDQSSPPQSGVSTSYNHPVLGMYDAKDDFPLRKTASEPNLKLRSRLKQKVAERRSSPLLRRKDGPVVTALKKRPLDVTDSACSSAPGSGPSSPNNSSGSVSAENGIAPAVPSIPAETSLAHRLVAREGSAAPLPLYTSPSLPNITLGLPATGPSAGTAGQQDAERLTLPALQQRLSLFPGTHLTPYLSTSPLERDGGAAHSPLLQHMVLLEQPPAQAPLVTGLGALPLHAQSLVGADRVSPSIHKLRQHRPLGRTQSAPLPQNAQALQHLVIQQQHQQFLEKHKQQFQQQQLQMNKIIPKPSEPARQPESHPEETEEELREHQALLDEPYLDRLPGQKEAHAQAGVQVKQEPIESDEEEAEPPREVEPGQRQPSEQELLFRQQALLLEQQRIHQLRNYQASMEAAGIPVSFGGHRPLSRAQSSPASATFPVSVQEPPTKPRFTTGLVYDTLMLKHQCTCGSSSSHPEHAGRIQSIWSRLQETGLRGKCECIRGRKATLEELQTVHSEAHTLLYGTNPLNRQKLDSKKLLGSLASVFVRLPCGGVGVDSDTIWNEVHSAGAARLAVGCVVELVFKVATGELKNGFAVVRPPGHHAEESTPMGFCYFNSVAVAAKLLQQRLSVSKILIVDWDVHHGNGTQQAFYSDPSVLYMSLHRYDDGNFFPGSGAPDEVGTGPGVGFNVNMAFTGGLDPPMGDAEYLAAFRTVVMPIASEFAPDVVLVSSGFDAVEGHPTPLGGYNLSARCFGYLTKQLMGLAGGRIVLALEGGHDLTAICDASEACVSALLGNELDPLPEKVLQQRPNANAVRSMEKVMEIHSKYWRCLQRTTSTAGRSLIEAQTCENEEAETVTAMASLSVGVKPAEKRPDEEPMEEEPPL
Chain of Histone deacetylase 2 (Q92769 whole entry): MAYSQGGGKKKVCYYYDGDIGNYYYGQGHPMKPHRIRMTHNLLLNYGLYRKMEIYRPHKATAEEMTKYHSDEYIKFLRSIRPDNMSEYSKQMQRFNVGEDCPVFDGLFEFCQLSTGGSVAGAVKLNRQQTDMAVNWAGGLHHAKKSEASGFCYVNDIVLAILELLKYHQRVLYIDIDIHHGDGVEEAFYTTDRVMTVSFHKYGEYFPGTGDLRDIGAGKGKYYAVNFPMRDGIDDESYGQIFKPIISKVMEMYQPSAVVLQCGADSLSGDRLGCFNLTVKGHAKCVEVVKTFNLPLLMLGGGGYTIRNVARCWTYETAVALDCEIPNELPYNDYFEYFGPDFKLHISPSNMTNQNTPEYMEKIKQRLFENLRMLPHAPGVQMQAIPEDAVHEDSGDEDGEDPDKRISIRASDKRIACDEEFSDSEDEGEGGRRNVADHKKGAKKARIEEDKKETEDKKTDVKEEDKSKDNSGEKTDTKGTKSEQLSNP
Chain of Histone deacetylase 3 (O15379 whole entry): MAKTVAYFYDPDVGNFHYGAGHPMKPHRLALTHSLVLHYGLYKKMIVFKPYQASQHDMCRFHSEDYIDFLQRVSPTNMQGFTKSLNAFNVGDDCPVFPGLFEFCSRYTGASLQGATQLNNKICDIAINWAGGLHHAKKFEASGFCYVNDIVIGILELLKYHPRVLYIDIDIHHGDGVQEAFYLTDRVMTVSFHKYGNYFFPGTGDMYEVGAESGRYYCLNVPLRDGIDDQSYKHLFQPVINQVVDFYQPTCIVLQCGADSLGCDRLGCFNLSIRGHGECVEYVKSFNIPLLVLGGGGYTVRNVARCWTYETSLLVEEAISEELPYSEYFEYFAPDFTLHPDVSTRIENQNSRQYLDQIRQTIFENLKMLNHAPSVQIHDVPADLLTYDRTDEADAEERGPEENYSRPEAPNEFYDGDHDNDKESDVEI
Chain of Histone deacetylase 5 (Q9UQL6 whole entry): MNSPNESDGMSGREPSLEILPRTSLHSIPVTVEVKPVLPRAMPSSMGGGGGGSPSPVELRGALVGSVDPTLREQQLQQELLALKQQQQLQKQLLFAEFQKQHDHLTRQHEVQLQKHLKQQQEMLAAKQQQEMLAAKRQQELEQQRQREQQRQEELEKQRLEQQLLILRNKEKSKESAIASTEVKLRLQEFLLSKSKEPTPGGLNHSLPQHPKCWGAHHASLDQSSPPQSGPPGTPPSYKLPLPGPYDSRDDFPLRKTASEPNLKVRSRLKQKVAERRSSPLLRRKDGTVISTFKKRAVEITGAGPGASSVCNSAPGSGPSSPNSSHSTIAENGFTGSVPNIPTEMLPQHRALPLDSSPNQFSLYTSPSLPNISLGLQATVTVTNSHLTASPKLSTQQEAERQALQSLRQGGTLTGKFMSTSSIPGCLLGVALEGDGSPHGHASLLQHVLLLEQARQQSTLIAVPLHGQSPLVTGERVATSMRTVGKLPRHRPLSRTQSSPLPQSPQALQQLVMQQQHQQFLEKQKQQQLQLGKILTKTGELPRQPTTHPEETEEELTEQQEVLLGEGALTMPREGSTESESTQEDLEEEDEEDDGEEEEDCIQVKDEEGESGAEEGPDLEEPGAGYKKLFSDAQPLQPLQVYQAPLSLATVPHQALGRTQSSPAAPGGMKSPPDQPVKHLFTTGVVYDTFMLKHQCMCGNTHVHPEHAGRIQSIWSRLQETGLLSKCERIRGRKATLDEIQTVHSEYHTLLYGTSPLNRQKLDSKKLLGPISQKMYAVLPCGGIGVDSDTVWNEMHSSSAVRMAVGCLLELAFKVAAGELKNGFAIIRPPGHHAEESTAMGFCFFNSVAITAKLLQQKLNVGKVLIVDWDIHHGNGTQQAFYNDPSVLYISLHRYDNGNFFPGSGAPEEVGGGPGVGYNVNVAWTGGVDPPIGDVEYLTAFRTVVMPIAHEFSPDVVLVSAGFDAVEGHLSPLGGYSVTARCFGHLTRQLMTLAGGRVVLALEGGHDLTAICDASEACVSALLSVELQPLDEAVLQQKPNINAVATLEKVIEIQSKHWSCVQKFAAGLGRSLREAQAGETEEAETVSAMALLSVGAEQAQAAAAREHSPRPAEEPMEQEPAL
Chain of Histone deacetylase 9 (Q9UKV0 whole entry): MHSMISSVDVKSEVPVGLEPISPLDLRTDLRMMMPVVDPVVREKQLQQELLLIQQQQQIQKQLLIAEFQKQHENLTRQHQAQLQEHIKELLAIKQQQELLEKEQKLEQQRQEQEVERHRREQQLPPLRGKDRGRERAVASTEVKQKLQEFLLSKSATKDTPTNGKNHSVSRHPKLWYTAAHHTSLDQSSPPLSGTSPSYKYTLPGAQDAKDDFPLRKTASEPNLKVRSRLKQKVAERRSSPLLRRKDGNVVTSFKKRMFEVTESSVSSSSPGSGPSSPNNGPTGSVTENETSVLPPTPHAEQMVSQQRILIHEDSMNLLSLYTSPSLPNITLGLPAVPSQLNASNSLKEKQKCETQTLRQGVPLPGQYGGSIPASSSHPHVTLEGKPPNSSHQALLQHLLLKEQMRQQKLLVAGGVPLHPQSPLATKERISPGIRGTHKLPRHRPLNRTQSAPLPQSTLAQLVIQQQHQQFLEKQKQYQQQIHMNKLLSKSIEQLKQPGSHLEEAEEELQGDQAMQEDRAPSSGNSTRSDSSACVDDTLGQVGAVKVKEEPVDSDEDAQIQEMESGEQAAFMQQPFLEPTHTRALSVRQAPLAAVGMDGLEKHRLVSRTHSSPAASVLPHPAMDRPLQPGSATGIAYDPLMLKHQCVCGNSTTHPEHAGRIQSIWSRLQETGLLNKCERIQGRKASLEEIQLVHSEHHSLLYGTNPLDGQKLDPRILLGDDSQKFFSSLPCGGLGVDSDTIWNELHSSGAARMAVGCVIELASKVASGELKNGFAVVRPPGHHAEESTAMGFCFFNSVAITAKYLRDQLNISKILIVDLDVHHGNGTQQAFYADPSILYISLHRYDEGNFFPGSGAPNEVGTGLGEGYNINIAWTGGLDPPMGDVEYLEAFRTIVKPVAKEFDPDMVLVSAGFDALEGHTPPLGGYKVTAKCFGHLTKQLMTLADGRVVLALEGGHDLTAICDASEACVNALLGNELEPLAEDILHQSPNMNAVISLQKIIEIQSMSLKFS
Chain of Histone deacetylase 1 (Q13547 whole entry): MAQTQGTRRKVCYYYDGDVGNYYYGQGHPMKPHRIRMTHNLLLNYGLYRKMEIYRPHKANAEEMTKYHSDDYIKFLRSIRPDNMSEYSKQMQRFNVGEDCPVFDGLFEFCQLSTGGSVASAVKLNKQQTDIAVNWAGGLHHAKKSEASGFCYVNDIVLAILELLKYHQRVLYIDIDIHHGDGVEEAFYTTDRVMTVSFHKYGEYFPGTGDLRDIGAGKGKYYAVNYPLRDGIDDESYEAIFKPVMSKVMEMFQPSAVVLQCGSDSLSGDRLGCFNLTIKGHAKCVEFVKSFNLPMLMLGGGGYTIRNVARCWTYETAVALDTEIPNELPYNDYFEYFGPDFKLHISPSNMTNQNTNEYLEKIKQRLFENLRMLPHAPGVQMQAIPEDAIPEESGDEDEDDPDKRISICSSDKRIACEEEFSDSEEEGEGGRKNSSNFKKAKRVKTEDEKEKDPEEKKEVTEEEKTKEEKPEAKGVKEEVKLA

Compound: O=C(CCCCCCc1nc2ccc(-c3ccccc3F)cc2[nH]1)NO
pIC50 (SK-OV-3): 5.13

Compound: O=C(CCCCCCc1nc2ccc(-c3ccc(F)cc3)cc2[nH]1)NO
pIC50 (SK-OV-3): 5.92

pIC50 (Histone deacetylase 8): 6.55 | pIC50 [5]: 8.72 | pIC50 (Histone deacetylase 4): 6.55 | pIC50 (Histone deacetylase 2): 7.47 | pIC50 (Histone deacetylase 5): 8.60 | pIC50 (Histone deacetylase 3): 8.19 | pIC50 (Histone deacetylase 1): 7.69 | pIC50 (Histone deacetylase 11): 7.48 | pIC50 [11]: 8.52 | pIC50 (Histone deacetylase 9): 8.96
Compound: O=C(CCCCCCc1nc2ccc(Br)cc2[nH]1)NO
pIC50 [1]: 6.25 | pIC50 (NCI-H295R): 6.74 | pIC50 [2]: 6.64 | inhibition in vivo at 100 mg/kg (MIA PaCa-2 [3]): 74% | pIC50 [4]: 7.05 | pIC50 (SK-OV-3): 6.59 | Activity (Mus musculus): Non-toxic | pIC50 [6]: 5.62 | pIC50 [7]: 5.70 | pIC50 (MDA-MB-231): 6.09 | pIC50 (NCI-H69 [8]): 6.82 | pIC50 [9]: 5.66 | pIC50 (NCI-H69 [10]): 6.77 | pIC50 [12]: 6.21 | pIC50 [13]: 6.01 | pIC50 (A2780): 5.72

Compound: O=C(CCCCCCc1nc2ccc(-c3cccc(F)c3)cc2[nH]1)NO
pIC50 (SK-OV-3): 5.82

Compound: COc1ccc2nc(CCCCCCC(=O)NO)[nH]c2c1
pIC50 (SK-OV-3): 4.96

Compound: O=C(CCCCCCC(=O)Nc1ccccc1)NO [VORINOSTAT]
pIC50 [4]: 5.64 | pIC50 (SK-OV-3): 5.64

Compound: O=C(CCCCCCc1nc2cccc(Cl)c2[nH]1)NO
pIC50 (SK-OV-3): 5.00

Compound: O=C(CCCCCCc1nc2ccccc2[nH]1)NO
pIC50 (SK-OV-3): 5.57

Compound: O=C(CCCCCc1nc2ccccc2[nH]1)NO
pIC50 (SK-OV-3): 4.96

Compound: O=C(CCCCCCc1nc2ccccc2n1C1CC1)NO
pIC50 (SK-OV-3): 5.02

Compound: O=C(CCCCCCc1nc2ccncc2[nH]1)NO
pIC50 (SK-OV-3): < 4.70

Compound: COc1ccc(-c2ccc3nc(CCCCCCC(=O)NO)[nH]c3c2)cc1
pIC50 (SK-OV-3): 5.51

Compound: Nc1ccn([C@@H]2O[C@H](CO)[C@@H](O)C2(F)F)c(=O)n1
TGI (MIA PaCa-2 [14]): Active

Compound: O=C(CCCCCCc1nc2ccc(-c3cncnc3)cc2[nH]1)NO
pIC50 (SK-OV-3): 5.59

Compound: O=C(CCCCCCc1nc2ccccc2n1C1CCCC1)NO
pIC50 (SK-OV-3): 5.32

Compound: CN(C)c1ccc(-c2ccc3nc(CCCCCCC(=O)NO)[nH]c3c2)cc1
pIC50 (SK-OV-3): 5.18

Compound: Cn1c(CCCCCCC(=O)NO)nc2ccccc21
pIC50 (SK-OV-3): 5.52

Compound: O=C(CCCCCCc1nc2ccc(-c3ccccc3)cc2[nH]1)NO
pIC50 (SK-OV-3): 7.00

Compound: O=C(CCCCCCc1nc2ccc(Cl)cc2[nH]1)NO
pIC50 (SK-OV-3): 6.49

Compound: CN(C)c1ccc2nc(CCCCCCC(=O)NO)[nH]c2c1
pIC50 (SK-OV-3): 5.92

Compound: O=C(CCCCCCc1nc2ccccc2n1-c1ccccc1)NO
pIC50 (SK-OV-3): < 4.70

Compound: O=C(CCCCCCc1nc2ccc(F)cc2[nH]1)NO
pIC50 (SK-OV-3): 5.72
